# Experimental data taken from patent US12370235B2, “Synthetic, non-natural antimicrobial peptides inspired by Staphylococcus auricularis delta toxin” (University of Saskatchewan, priority 2021, dated 2025).
# Square brackets hold non-standard residues; d marks the D form. Ends that are not written are not given here. Peptide text beside a SMILES is read from it.
# What was measured:
# [1] = system: S. aureus / MRSA (ATCC MP-2 panel); assay type: cell-based, Staphylococcus aureus
# Protocol: In order to begin to characterize STIP3-1 and potential sites amenable to modification, an alanine scanning experiment was performed. A total of 16 peptides with single alanine substitutions were assessed to inform on the importance of individual residues to antimicrobial activity. […] Next a series of thirty STIP3-1 variants were designed, guided by the aforementioned alanine scan and a previous report that the central α-helical core of the S. aureus δ-toxin could be converted into AMP through the inclusion of additional lysine residues^39. The collection included ten members with single substitutions relative to STIP3-1 and others that incorporated a number of changes that were designed to increase overall and local cationic charge as well as hydrophobic character (Table 5). Each of the STIPs was screened, including STIP3-1 to STIP-31, for antibiotic activity against a methicillin-sensitive S. aureus test organism and a panel of 7 MRSA strains defined by distinct SCCmec genotypes (FIG. 2; ATCC MP-2).
# (§1) Determination of minimum inhibitory concentrations. The MICs were measured for bioactive peptides identified from the initial screen. For bacterial studies, cation-adjusted Mueller Hinton (MH) broth was used as the growth medium whereas YPD was used for C. albicans. Bacterial cultures were diluted to a OD value of 6×10^−4 in MH broth and a 180 μl volume was mixed with 20 μl of peptide arrayed as 2-fold dilution series in a 96-well plate. For the positive control, 20 μl of sterile water was used. Plates were incubated as standing cultures overnight at 37° C. The lowest peptide concentration that resulted no observed microbial growth after an overnight treatment was defined as the MIC.
# [2] = system: S. aureus ATCC 33592 (MRSA SCCmec type III); test: MIC, broth dilution; assay type: cell-based, Staphylococcus aureus; details: Table 5; STIP3 variants, highest concentration 100 μg/mL
# Method in brief: (§2)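 Peptides (95% purity) were serially diluted 2-fold and mixed with bacteria diluted to OD 6×10^−4 in cation-adjusted Mueller Hinton broth. Standing cultures were incubated overnight at 37° C. MIC was the lowest peptide concentration with no observed growth.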
# S. aureus ATCC 29213 [3] = test: MIC, broth dilution; assay type: cell-based, Staphylococcus aureus
# Method in brief: as §2
# [4] = Circular dichroism spectroscopy; assay type: physicochemical; details: CD, 50% (v/v) TFE
# Description: The δ-toxins and the PSMs are characterized as α-helical peptides that form amyloid fibers^48. Although the propensity of individual peptides to form amyloids is correlated to their cytotoxicity^49, the amyloid form is not directly implicated in cell membrane disruption^50. […] CD spectroscopy was used to investigate the secondary structure of a subset of peptides within the collection (FIG. 4A, Table 5). The STIP variants adopted α-helical forms in 50% (v/v) trifluoroethanol (TFE), though unlike the full-length S. auricularis δ-toxin, they were unstructured in water. […] Specifically, peptides characterized by the greatest and least α-helical content in TFE had MICs above the highest tested threshold.
# Circular dichroism spectroscopy. Peptides were dissolved in water at concentrations between 0.3 and 0.5 mg/mL. CD spectra were recorded on an Applied Photophysics Chirascan Plus CD spectrophotometer at room temperature in a 0.1 cm path-length quartz cuvette. Spectra were recorded from 180 to 260 nm.
# C. albicans Y537 = test: MIC, YPD broth; assay type: cell-based, Candida albicans; details: Table 8
# C. albicans MYA-2876 = test: MIC, YPD broth; assay type: cell-based, Candida albicans; details: Table 8
# Method in brief: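 Minimum inhibitory concentrations against Candida albicans were determined in YPD broth (10 g/L yeast extract, 20 g/L peptone, 20 g/L dextrose) using peptides of 95% purity. A 180 μl volume of diluted yeast was combined with 20 μl of peptide in a 2-fold dilution series in 96-well plates, with sterile water as control, then incubated standing overnight at 37° C.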
# S. aureus ATCC 29213 [5] = test: Spot-on-lawn assay; assay type: cell-based, Staphylococcus aureus; details: 50 μg peptide spotted on agar
# Protocol: Spot-on-lawn assay. For the initial screen, peptides of ≥70% purity were used. Each peptide was resuspended in sterile water to a concentration of 10 mg/ml. To determine antimicrobial activities a spot-on-lawn assay was performed. M. luteus and S. aureus were used as indicator strains. To prepare test organisms, the optical density (OD) of overnight cultures were measured and the organisms were diluted to an initial OD of 0.05 in soft nutrient agar (0.4% w/v) at 50° C. Next, 3 mL of soft agar containing a test organism was overlaid on a solid 1.5% w/v nutrient agar plate (LB). A total of 50 μg of each peptide was spotted on the inoculated surface and plates were incubated for 16 to 48 h before being examined for zones of inhibition.
# SspA protease treatment. SspA protease was resuspended at 2 mg/mL in 100 mM HEPES, pH 7.8. Proteolysis was achieved by incubation of 50 μg PSMs at 37° C. for ˜5 hours with 0.2 mg/mL SspA. The antimicrobial activity of the proteolytic products were assayed by spotting a 5 μL (˜45 μg) from each treated peptide on each test microorganism as described above.
# M. luteus ATCC 4698 = test: MIC, broth dilution; assay type: cell-based, Micrococcus luteus; details: Table 4; liquid broth
# Protocol: MIC determination. MICs were measured using peptides with 95% purity. For bacterial studies, cation-adjusted Mueller Hinton (MH) broth was used as the growth medium whereas Yeast Peptone Dextrose (YPD; 10 g/L yeast extract, 20 g/L peptone, 20 g/L dextrose) was used for Candida spp. and other yeast. Microorganisms were diluted to an optical density of […] in MH or YPD broth and a 180 μl volume was mixed with 20 μl of peptide arrayed as a 2-fold dilution series in a flat-bottom 96-well microtitre plate. A control was performed using 20 μl of sterile water. Plates were incubated as standing cultures overnight at 37° C.
# as §1
# [6] = system: Mannheimia haemolytica ATCC 33393; test: MIC, broth dilution; assay type: cell-based; details: Table 10; liquid broth
# Method in brief: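 Peptides (95% purity) in 2-fold dilution series were mixed with M. haemolytica diluted to OD 6×10^−4 in cation-adjusted Mueller Hinton broth and incubated standing overnight at 37 °C. MIC was the lowest concentration with no visible growth.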
compound,measurement,setting,value
"CC[C@H](C)[C@H](NC(=O)[C@H](Cc1c[nH]c2ccccc12)NC(=O)[C@H](CCCCN)NC(=O)[C@@H](NC(=O)[C@H](CC(C)C)NC(=O)CNC(=O)CNC(=O)[C@@H](NC(=O)[C@@H](N)[C@@H](C)O)C(C)C)C(C)C)C(=O)N[C@@H](CC(C)C)C(=O)N[C@H](CCCCN)C(=O)N[C@H](C(=O)N[C@H](C(=O)N[C@@H](CCCCN)C(=O)N[C@@H](CCCCN)C(=O)N[C@@H](Cc1ccccc1)C(=O)N[C@@H](C)C(N)=O)C(C)C)[C@@H](C)O [STIP3-29-D1, TVGGLVKWILKTVKKFA-NH2] (H-TVGGLVKWIL[dK]TVKKFA-NH2; N-terminus assumed)",fold increase of MIC relative to STIP3-29,[1],4 fold
same,MIC S. aureus ATCC 33592 (III),[2],25 µg/mL
same,MIC S. aureus ATCC 29213,"S. aureus ATCC 29213 [3]; Table 5, STIP3 variants, highest concentration 100 μg/mL",12.5 µg/mL
same,α helicity (%),[4],51%
same,MIC C. albicans Y537,C. albicans Y537,25 µg/mL
same,MIC C. albicans MYA-2876,C. albicans MYA-2876,12.5 µg/mL
"AVGGLVKWILDTVKKFA [T1A, AVGGLVKWILDTVKKFA]","inhibition of S. aureus, spot-on-lawn",S. aureus ATCC 29213 [5],observed to inhibit S. aureus
same,MIC (μg/mL) S. aureus,"S. aureus ATCC 29213 [3]; Table 4, liquid broth",200 µg/mL
same,MIC (μg/mL) M. luteus,M. luteus ATCC 4698,12.5 µg/mL
same,MIC (μg/mL) M. haemolytica,[6],50 µg/mL
